pD2 data for eight molecules are collected here from ChEMBL document CHEMBL1159146, “Structure-activity studies of N-cyano-3-pyridinecarboxamidines and their amide and thioamide congeners” (1994).

Some results are limits rather than exact numbers.

Holding throughout (type): functional
For assay [1], the species on record is Cavia porcellus. Description: Compound was tested for chronotropic activity in right atria of guinea pig.
The species entered for assay [2] is Cavia porcellus. Description: Compound was tested for negative inotropic activity in left atria of guinea pig.
For assay [3], the species on record is Rattus norvegicus. In words: Compound was tested for […] vasorelaxing activity in aorta of rat.

For the molecule `S=C(NCCc1ccccc1)c1cccnc1`, the pD2 in assay [1] is reported as 4.1; in assay [2], 4.39; in assay [3] it was 4.95.

On to `O=C(NCCc1ccccc1)c1cccnc1`, for which the pD2 in assay [1] is on record as below 3.5; in assay [2], below 3.5; in assay [3] it was 4.09.

For `N#CN/C(=N\CCc1ccccc1)c1cccnc1`, the pD2 stood at 3.85 in assay [1], 4.6 in assay [2] and 6.4 in assay [3].

For the molecule `N#CN/C(=N\CCO[N+](=O)[O-])c1cccnc1`, the pD2 was determined as 4.42 in assay [1], 4.84 in assay [2] and 6.95 in assay [3].

For the molecule `S=C(NCCc1ccccc1Cl)c1cccnc1`, the pD2 in assay [1] is 4.54; in assay [2] it was below 4.5; in assay [3] it was 5.64.

As to `N#CN/C(=N\CCc1ccccc1Cl)c1cccnc1`, the pD2 in assay [1] was found to be 5.32; in assay [2] it was 5.51; in assay [3], 7.57.

As to `O=C(NCCc1ccccc1Cl)c1cccnc1`, the figures for the pD2 in assay [1], in assay [2] and in assay [3] were below 3.5, 3.7 and 4.83, respectively.

In the case of `O=C(NCCO[N+](=O)[O-])c1cccnc1` [NICORANDIL], the results for the pD2 in assay [1], in assay [2] and in assay [3] were below 3.5, below 3.5 and 5.62, respectively.
